Test results: ChEMBL document CHEMBL1201862, “PubChem BioAssay data set” (2004)
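Compound exposure: 48 hours, 5 concentrations, 96-well plates. GI50 is the concentration that inhibits growth by half.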 Calls of active or inactive are those of the source. No stated cut-off is given here; in the data, active = GI50 up to about 1.1 µM and inactive = higher. Where a SMILES comes first, the peptide text is derived from it. Bridges are numbered along the chain shown (N, C = ends). The star is where a group is joined. Cbz = O=C(OCc1ccccc1)*

Experiments:
Assay in all cases: NCI tumour cell line growth inhibition, 48 h
[1] = test system: UO-31
[2] = test system: SR
[3] = test system: NCI-H226
[4] = test system: KM12
[5] = test system: MOLT-4
[6] = test system: NCI-H460
[7] = test system: OVCAR-8
[8] = test system: HL-60
[9] = test system: 786-0
[10] = test system: K562
[11] = test system: OVCAR-3
[12] = test system: HOP-62
[13] = test system: HCT-15
[14] = test system: SK-MEL-2
[15] = test system: ACHN
[16] = test system: SNB-78
[17] = test system: M19-MEL
[18] = test system: NCI/ADR-RES
[19] = test system: MDA-MB-231
[20] = test system: MDA-N

Measured: GI50

COc1ccc(OC(C)=O)c2c1CCC=CC2=O
inactive: [1] 17.2 µM | [2] 15.1 µM | [3] 18.8 µM | [4] 3.4 µM | [5] 12.2 µM | [6] 19.1 µM | [7] 16.8 µM | [8] 2.47 µM | [9] 17.9 µM | [10] 3.76 µM | [11] 15.8 µM | [12] 14.7 µM | [14] 17.8 µM | [15] 17.9 µM | [16] 38.5 µM
14.5 µM: [13]

COC(=O)Cc1nn2c(nc1=O)sc1ccc3ccccc3c12
> 100 µM: [13]
inactive: [1] > 100 µM | [17] > 100 µM | [2] > 100 µM | [3] > 100 µM | [4] > 100 µM | [5] > 100 µM | [6] 62.7 µM | [7] 43.2 µM | [8] > 100 µM | [9] 44.3 µM | [10] > 100 µM | [11] > 100 µM | [12] 72.1 µM | [14] 93.8 µM | [15] 56.9 µM

CC(C)=CC1C(COC(=O)c2cc3c(cc2Cl)OCO3)C1(C)C (stereo not given)
inactive: [1] 54.2 µM | [2] 21.3 µM | [3] 42.4 µM | [4] 28.2 µM | [5] 16.1 µM | [6] 33 µM | [7] 34.8 µM | [8] 20.9 µM | [18] 35.6 µM | [9] 37.8 µM | [10] 34.4 µM | [11] 25.2 µM | [12] 38.3 µM | [19] 73.6 µM | [14] 18.6 µM | [15] 33.1 µM | [20] 29.5 µM
29 µM: [13]

CCOc1ccccc1NC(=O)/C=C1\NC(=O)CS1
inactive: [1] > 100 µM | [17] > 100 µM | [3] > 100 µM | [4] > 100 µM | [5] > 100 µM | [6] > 100 µM | [7] > 100 µM | [8] > 100 µM | [9] > 100 µM | [10] > 100 µM | [11] > 100 µM | [12] > 100 µM | [14] > 100 µM | [16] > 100 µM

COc1cc(Cl)c2c3c(c(C(C)=O)oc13)CCC2
inactive: [17] > 100 µM | [6] > 100 µM | [7] > 100 µM | [8] > 100 µM | [9] > 100 µM | [10] > 100 µM | [11] > 100 µM | [12] > 100 µM | [15] > 100 µM | [16] > 100 µM
> 100 µM: [13]

S=C(NN=C1NCCCCN1)Nc1ccc(Cl)cc1
inactive: [1] 9.44 µM | [2] 11.8 µM | [3] > 100 µM | [4] 14.5 µM | [5] 6.67 µM | [6] 3.78 µM | [7] 10.3 µM | [8] 8.18 µM | [18] 23.4 µM | [9] 7.35 µM | [10] 5.85 µM | [11] 35.8 µM | [12] 11 µM | [19] 21 µM | [14] 22.3 µM | [15] 7.29 µM | [20] 11.4 µM
6.4 µM: [13]

O=C(C/C(=N/O)C(F)(F)F)c1cccs1
> 100 µM: [13]
inactive: [1] > 100 µM | [2] > 100 µM | [3] > 100 µM | [4] > 100 µM | [5] > 100 µM | [6] > 100 µM | [7] > 100 µM | [8] > 100 µM | [18] > 100 µM | [9] > 100 µM | [10] > 100 µM | [11] 67.8 µM | [12] > 100 µM | [19] > 100 µM | [14] 30.8 µM | [15] > 100 µM | [20] > 100 µM

O=C(Cc1nc2ccccc2o1)C(=O)Nc1cccc(C(F)(F)F)c1
inactive: [1] > 100 µM | [17] > 100 µM | [3] > 100 µM | [4] > 100 µM | [5] > 100 µM | [6] > 100 µM | [7] > 100 µM | [8] > 100 µM | [9] > 100 µM | [10] > 100 µM | [11] > 100 µM | [12] > 100 µM | [14] > 100 µM | [15] > 100 µM | [16] > 100 µM
> 100 µM: [13]

COC(=O)C1CCCCNC(=O)CCC(NC(=O)OCc2ccccc2)C(=O)N1 (stereo not drawn) (Cbz-Glu-Lys-OMe; lactam 1-2; configuration not given here)
inactive: [1] > 100 µM | [2] > 100 µM | [3] > 100 µM | [4] > 100 µM | [5] > 100 µM | [6] > 100 µM | [7] > 100 µM | [8] > 100 µM | [18] > 100 µM | [9] 43.6 µM | [10] > 100 µM | [11] > 100 µM | [12] 38.7 µM | [19] 62.7 µM | [14] > 100 µM | [15] > 100 µM | [20] > 100 µM
> 100 µM: [13]
